The term ED50 denotes the midpoint of the dose-response relation.

Common to all, as to type: functional
One test deals with Enterococcus faecalis. Kind of test: Inhibitory activity against Enterococcus faecalis UC9217.
Another test relates to Haemophilus influenzae. Kind of test: Inhibitory activity against Haemophilus influenzae UC30063.
In the next test the test system is Moraxella catarrhalis. Kind of test: Inhibitory activity against Moraxella catarrhalis UC30610.
The next test has as its system Streptococcus pneumoniae. The test is described as follows: Inhibitory activity against Streptococcus pneumoniae UC9912.
The subject of test [1] is Staphylococcus epidermidis. The test is described as follows: Inhibitory activity against Methicillin-resistant Staphylococcus epidermidis UC12084.
The subject of test [2] is Staphylococcus aureus. The test is described as follows: Inhibitory activity against Methicillin-resistant Staphylococcus aureus UC6685.
Test [3] concerns Staphylococcus aureus. The test is described as follows: Inhibitory activity against Methicillin-susceptible Staphylococcus aureus UC9213.
Test [4] relates to Mus musculus. Kind of test: Dose required to cure 50% of Staphylococcus aureus infected mice when administered orally. Conditions: po.
The test system of test [5] is Mus musculus. Kind of test: Dose required to cure 50% of Staphylococcus aureus infected mice in the presence of eperezolid when administered orally. As to conditions: po.
In test [6] the test system is Mus musculus. Kind of test: Dose(orally administered) required to cure 50% of Staphylococcus aureus infected mice. As to conditions: po.
Test [7] concerns Mus musculus. Kind of test: Dose(orally administered) required to cure 50% of Staphylococcus aureus infected mice in the presence of eperezolid (95% confidence limits). As to conditions: po.
Test [8] has as its system Mus musculus. The test is described as follows: Dose required to cure 50% of Staphylococcus aureus infected mice in the presence of eperezolid when administered orally; value ranges from 1.8-4.4. As to conditions: po.
Test [9] concerns Mus musculus. The test is described as follows: Dose required to cure 50% of Staphylococcus aureus infected mice in the presence of eperezolid when orally administered. Conditions: po.
The test system of test [10] is Mus musculus. Kind of test: Dose required to cure 50% of Staphylococcus aureus infected mice in the presence of vancomycin when orally administered; value ranges from 0.5-1.5. Conditions: po.
In test [11] the test system is Mus musculus. The test is described as follows: Dose required to cure 50% of Staphylococcus aureus infected mice when orally administered. Conditions: po.
Test [12] relates to Mus musculus. The test is described as follows: Dose required to cure 50% of Staphylococcus aureus infected mice in the presence of vancomycin when administered orally; value ranges from 2.5-6.4. Conditions: po.
For test [13], the system named is Mus musculus. The test is described as follows: Dose required to cure 50% of Staphylococcus aureus infected mice when administered orally; value ranges from 1.4-3.8. As to conditions: po.
Test [14] concerns Mus musculus. Kind of test: Dose required to cure 50% of Staphylococcus aureus infected mice when administered orally; the value ranges from 1.1-3.3. Conditions: po.
For test [15], the system named is Mus musculus. Kind of test: Dose required to cure 50% of Staphylococcus aureus infected mice in the presence of eperezolid when orally administered; the value ranges from 1.7-4.5. Conditions: po.
In test [16] the test system is Mus musculus. The test is described as follows: Dose required to cure 50% of Staphylococcus aureus infected mice in the presence of vancomycin when orally administered. Conditions: po.
In test [17] the test system is Mus musculus. The test is described as follows: Dose required to cure 50% of Staphylococcus aureus infected mice when orally administered; value ranges from 7.9-32.5. Conditions: po.
The subject of test [18] is Mus musculus. The test is described as follows: Dose required to cure 50% of Staphylococcus aureus infected mice in the presence of eperezolid when administered orally; value ranges from 2.9-7.1). Conditions: po.
Test [19] relates to Mus musculus. The test is described as follows: Dose required to cure 50% of Staphylococcus aureus infected mice when administered orally; value ranges from 5.7-14.5. Conditions: po.

Values after ≈ are worked out from the molar mass of the structure shown.

As to `CC(=O)NC[C@H]1CN(c2ccc(-n3ccc(C(C)=O)c3)c(F)c2)C(=O)O1`, the MIC was determined as 1 mg/L (≈ 2.78 µM) against Enterococcus faecalis; 16 mg/L (≈ 44.5 µM) in the test on Haemophilus influenzae; 4 mg/L (≈ 11.1 µM) against Moraxella catarrhalis; 0.25 mg/L (≈ 0.696 µM) with Streptococcus pneumoniae; 0.5 mg/L (≈ 1.39 µM) in test [1]; 1 mg/L (≈ 2.78 µM) in the test with Staphylococcus aureus [2]. Besides, the MIC in the test on Staphylococcus aureus [3] turned out to be 2 mg/L (≈ 5.57 µM). The ED50 with Mus musculus [4] was determined as 6.5 mg/kg/day; in the test with Mus musculus [5], 10 mg/kg/day.
`CCOC(=O)/C=C/c1ccn(-c2ccc(N3C[C@H](CNC(C)=O)OC3=O)cc2F)c1`: the MIC was determined as 2 mg/L (≈ 4.81 µM) against Enterococcus faecalis; 32 mg/L (≈ 77 µM) in the test on Haemophilus influenzae; 4 mg/L (≈ 9.63 µM) in the test on Moraxella catarrhalis; 0.5 mg/L (≈ 1.2 µM) in the test on Streptococcus pneumoniae; 2 mg/L (≈ 4.81 µM) in [1]; 4 mg/L (≈ 9.63 µM) in the test with Staphylococcus aureus [2]. The compound further came in with an MIC with Staphylococcus aureus [3] of 4 mg/L (≈ 9.63 µM). For the same compound, the ED50 is greater than 20 mg/kg/day in the test with Mus musculus [6] and 2.1 mg/kg/day with Mus musculus [7].
In the case of `COC(=O)c1ccn(-c2ccc(N3C[C@H](CNC(C)=O)OC3=O)cc2F)c1`, the MIC is 1 mg/L (≈ 2.66 µM) in the test with Enterococcus faecalis; greater than 16 mg/L against Haemophilus influenzae; 16 mg/L (≈ 42.6 µM) against Moraxella catarrhalis; 0.25 mg/L (≈ 0.666 µM) in the test with Streptococcus pneumoniae; 0.5 mg/L (≈ 1.33 µM) in test [1]; 2 mg/L (≈ 5.33 µM) in the test on Staphylococcus aureus [2]. The MIC in the test on Staphylococcus aureus [3] stood at 2 mg/L (≈ 5.33 µM). Besides, the ED50 in the test on Mus musculus [4] was greater than 20 mg/kg/day; in the test on Mus musculus [8], 2.9 mg/kg/day.
With `CC(=O)NC[C@H]1CN(c2ccc(-n3ccc(/C(C)=N\O)c3)c(F)c2)C(=O)O1`, the MIC in the test with Enterococcus faecalis was found to be 1 mg/L (≈ 2.67 µM); in the test on Haemophilus influenzae, 8 mg/L (≈ 21.4 µM); against Moraxella catarrhalis, 2 mg/L (≈ 5.34 µM); against Streptococcus pneumoniae, 0.25 mg/L (≈ 0.668 µM); in [1] it was 0.5 mg/L (≈ 1.34 µM); against Staphylococcus aureus [2] it was 1 mg/L (≈ 2.67 µM). In addition, the MIC against Staphylococcus aureus [3] was 2 mg/L (≈ 5.34 µM). Moreover, the figures for the 50% effective dose (ED50) in the test on Mus musculus [4] and in the test on Mus musculus [9] were 15 mg/kg/day and 10 mg/kg/day, respectively.
In the case of `CC(=O)NC[C@H]1CN(c2ccc(-n3ccc(CO)c3)c(F)c2)C(=O)O1`, the MIC in the test on Enterococcus faecalis is 1 mg/L (≈ 2.88 µM); with Haemophilus influenzae it was 4 mg/L (≈ 11.5 µM); in the test with Moraxella catarrhalis, 2 mg/L (≈ 5.76 µM); with Streptococcus pneumoniae, 0.25 mg/L (≈ 0.72 µM); in test [1] it was 0.25 mg/L (≈ 0.72 µM); in the test with Staphylococcus aureus [2] it was 1 mg/L (≈ 2.88 µM). The compound also gave an MIC against Staphylococcus aureus [3] of 1 mg/L (≈ 2.88 µM). For the same compound, the figures for the median effective dose (ED50) in the test with Mus musculus [10] and in the test with Mus musculus [11] were 0.9 mg/kg/day and greater than 20 mg/kg/day, respectively.
As for `CC(=O)NC[C@H]1CN(c2ccc(N3CCN(C(=O)CO)CC3)c(F)c2)C(=O)O1` [EPEREZOLID], the figures for the ED50 with Mus musculus [12] and with Mus musculus [13] were 3.9 mg/kg/day and 1.9 mg/kg/day, respectively.
Take `CC(=O)NC[C@H]1CN(c2ccc(-n3cc(C#N)nn3)c(F)c2)C(=O)O1`: the MIC with Enterococcus faecalis was 1 mg/L (≈ 2.9 µM); in the test with Haemophilus influenzae it was 2 mg/L (≈ 5.81 µM); against Moraxella catarrhalis, 2 mg/L (≈ 5.81 µM); in the test on Streptococcus pneumoniae, no more than 0.125 mg/L; in test [1], 0.25 mg/L (≈ 0.726 µM); with Staphylococcus aureus [2], 0.5 mg/L (≈ 1.45 µM). In addition, in the test with Staphylococcus aureus [3], the MIC stood at 1 mg/L (≈ 2.9 µM). Further, the ED50 with Mus musculus [14] stood at 1.9 mg/kg/day; in the test on Mus musculus [15] it was 2.8 mg/kg/day.
As for `CC(=O)NC[C@H]1CN(c2ccc(-n3cccc3)c(F)c2)C(=O)O1`, the MIC against Enterococcus faecalis was 1 mg/L (≈ 3.15 µM); against Haemophilus influenzae, 4 mg/L (≈ 12.6 µM); in the test on Moraxella catarrhalis, 2 mg/L (≈ 6.3 µM); with Streptococcus pneumoniae it was no more than 0.5 mg/L; in test [1], no more than 0.5 mg/L; in the test on Staphylococcus aureus [2], 1 mg/L (≈ 3.15 µM). Also, in the test with Staphylococcus aureus [3], the MIC was determined as 1 mg/L (≈ 3.15 µM). The ED50 in the test with Mus musculus [16] was 2.7 mg/kg/day; in the test with Mus musculus [17], 13.2 mg/kg/day.
As for `CC(=O)NC[C@H]1CN(c2ccc(-n3cc(C(C)=O)nn3)c(F)c2)C(=O)O1`, the MIC against Enterococcus faecalis was determined as 2 mg/L (≈ 5.54 µM); against Haemophilus influenzae, 8 mg/L (≈ 22.1 µM); in the test with Moraxella catarrhalis it was 8 mg/L (≈ 22.1 µM); against Streptococcus pneumoniae, 0.5 mg/L (≈ 1.38 µM); in [1] it was 1 mg/L (≈ 2.77 µM); with Staphylococcus aureus [2], 1 mg/L (≈ 2.77 µM). Also, the MIC with Staphylococcus aureus [3] is 1 mg/L (≈ 2.77 µM). For the same compound, the results for the ED50 in the test on Mus musculus [18] and with Mus musculus [19] were 4.4 mg/kg/day and 8.8 mg/kg/day, respectively.

The record behind these values is ChEMBL document CHEMBL1132968, “Substituent effects on the antibacterial activity of nitrogen-carbon-linked (azolylphenyl)oxazolidinones with expanded activity against the fastidious gram-negative organisms Haemophilus influenzae and Moraxella catarrhalis” (2000).
